Source: ChEMBL document CHEMBL1201862, “PubChem BioAssay data set” (2004)
pIC50: −log10 of the molar value. The source made the active and inactive calls.

Experiments:
[1] = target: Intestinal-type alkaline phosphatase (Mus musculus, UniProt P24822); experiment: PubChem AID 488874; type: functional
[2] = target: T1, Intestinal-type alkaline phosphatase (Homo sapiens, UniProt P09923); experiment: human intestinal alkaline phosphatase activators, dose response, biochemical, luminescence, uHTS hits (AID 463120); type: functional
T1 sequence (P09923 whole entry): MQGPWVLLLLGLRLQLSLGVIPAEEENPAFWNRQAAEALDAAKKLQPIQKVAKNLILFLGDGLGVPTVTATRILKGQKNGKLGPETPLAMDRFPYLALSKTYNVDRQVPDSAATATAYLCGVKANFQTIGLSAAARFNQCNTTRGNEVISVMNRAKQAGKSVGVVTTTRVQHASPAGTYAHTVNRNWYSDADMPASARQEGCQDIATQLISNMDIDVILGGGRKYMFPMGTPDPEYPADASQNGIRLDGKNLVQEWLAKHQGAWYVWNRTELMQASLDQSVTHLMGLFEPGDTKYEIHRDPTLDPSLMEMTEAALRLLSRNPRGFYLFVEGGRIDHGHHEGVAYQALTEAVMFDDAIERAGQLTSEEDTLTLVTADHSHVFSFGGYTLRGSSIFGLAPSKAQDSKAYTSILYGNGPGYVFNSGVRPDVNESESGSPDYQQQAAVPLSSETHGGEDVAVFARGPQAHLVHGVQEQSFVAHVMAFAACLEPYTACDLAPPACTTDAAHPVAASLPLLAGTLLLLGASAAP

[3] = target: T1, Intestinal-type alkaline phosphatase; experiment: activation of human intestinal alkaline phosphatase – biochemical, luminescent, uHTS hits, set 2, dose response (AID 488817); type: functional;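 note: potency of activators that raise enzyme activity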
[4] = target: T2, Alkaline phosphatase, tissue-nonspecific isozyme (Homo sapiens, UniProt P05186); experiment: activation of tissue-nonspecific alkaline phosphatase – biochemical, TNAP isozyme, human IAP uHTS hits, selectivity assay for human IAP activator project, dose response (AID 488886); type: functional;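 note: potency of compounds raising TNAP activity as a selectivity check on IAP activators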
T2 sequence (P05186 whole entry): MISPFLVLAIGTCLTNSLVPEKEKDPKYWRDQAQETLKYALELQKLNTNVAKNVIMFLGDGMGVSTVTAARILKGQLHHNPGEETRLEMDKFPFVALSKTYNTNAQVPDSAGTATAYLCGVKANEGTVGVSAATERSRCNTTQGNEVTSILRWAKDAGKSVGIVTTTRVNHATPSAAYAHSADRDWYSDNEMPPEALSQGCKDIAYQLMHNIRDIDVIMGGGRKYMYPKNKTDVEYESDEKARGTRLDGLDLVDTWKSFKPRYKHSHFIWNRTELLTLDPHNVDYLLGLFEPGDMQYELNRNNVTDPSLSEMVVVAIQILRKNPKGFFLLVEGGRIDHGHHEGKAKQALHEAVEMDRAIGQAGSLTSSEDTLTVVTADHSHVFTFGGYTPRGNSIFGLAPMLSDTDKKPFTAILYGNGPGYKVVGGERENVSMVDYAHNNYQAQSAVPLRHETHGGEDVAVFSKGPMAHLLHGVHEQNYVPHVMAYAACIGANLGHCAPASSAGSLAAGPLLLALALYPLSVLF

[5] = target: T3, Caspase-6 (Homo sapiens, UniProt P55212); experiment: inhibition of CASP6 peptide cleavage – biochemical, VEID-R110 fluorescence, cherry-pick, dose response (AID 720632)
T3 sequence (P55212 whole entry): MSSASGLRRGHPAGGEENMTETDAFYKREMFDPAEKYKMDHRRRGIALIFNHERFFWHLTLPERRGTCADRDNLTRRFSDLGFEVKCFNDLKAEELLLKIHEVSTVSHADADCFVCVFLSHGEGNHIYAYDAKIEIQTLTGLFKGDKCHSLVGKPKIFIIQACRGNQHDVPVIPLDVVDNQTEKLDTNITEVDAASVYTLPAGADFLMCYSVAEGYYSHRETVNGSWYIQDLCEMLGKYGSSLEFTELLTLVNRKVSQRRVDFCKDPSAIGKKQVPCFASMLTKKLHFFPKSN

[6] = target: T4, G-protein coupled receptor 35 (Homo sapiens, UniProt Q9HC97); experiment: inhibition of zaprinast-stimulated GPR35 beta-arrestin translocation – imaging, U2OS, beta-arrestin-GFP, zaprinast agonist, primary screen (AID 2058); type: functional;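 note: antagonist potency meaning inhibition of agonist-induced arrestin redistribution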
T4 sequence (Q9HC97 whole entry): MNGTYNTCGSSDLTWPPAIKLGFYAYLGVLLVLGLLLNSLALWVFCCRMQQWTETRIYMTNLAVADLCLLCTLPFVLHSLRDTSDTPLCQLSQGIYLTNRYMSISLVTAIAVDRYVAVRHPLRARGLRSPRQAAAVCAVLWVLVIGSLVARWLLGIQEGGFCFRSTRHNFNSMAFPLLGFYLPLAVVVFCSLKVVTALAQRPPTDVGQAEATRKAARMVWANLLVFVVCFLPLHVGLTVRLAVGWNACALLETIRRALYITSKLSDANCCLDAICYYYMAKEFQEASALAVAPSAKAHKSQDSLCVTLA

[7] = target: T4, G-protein coupled receptor 35; experiment: SAR Analysis for the identification of Selective Antagonists of ERK1/2 Activity in GPR35-Overexpressing U2OS Cells. [Related pubchem assays: 2079, 2058 ]; type: functional, cell-based
[8] = target: G-protein coupled receptor 55 (Homo sapiens, UniProt Q9Y2T6); experiment: blockers of GPR55 signalling, imaged – imaging, image-based, counter-screen for GPR35 antagonist project, SAR follow-up (AID 2397); type: functional
Chain of G-protein coupled receptor 55 (Q9Y2T6 whole entry): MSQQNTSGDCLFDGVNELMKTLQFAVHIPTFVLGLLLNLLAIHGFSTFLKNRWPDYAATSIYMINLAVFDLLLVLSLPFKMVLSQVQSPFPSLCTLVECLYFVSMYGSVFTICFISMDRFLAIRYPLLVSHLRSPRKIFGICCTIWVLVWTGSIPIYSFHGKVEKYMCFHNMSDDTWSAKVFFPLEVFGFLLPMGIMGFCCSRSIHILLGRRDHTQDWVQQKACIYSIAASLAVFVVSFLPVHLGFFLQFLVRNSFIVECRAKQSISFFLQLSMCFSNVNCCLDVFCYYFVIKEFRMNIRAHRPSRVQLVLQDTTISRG

[9] = target: T5, Delta-type opioid receptor (Homo sapiens, UniProt P41143); experiment: HTS Image-Based Screen for Antagonists of the DOR Receptor. [Related pubchem assays (depositor defined):AID1777, AID1785, AID1786, AID2133]; type: functional
T5 sequence (P41143 whole entry): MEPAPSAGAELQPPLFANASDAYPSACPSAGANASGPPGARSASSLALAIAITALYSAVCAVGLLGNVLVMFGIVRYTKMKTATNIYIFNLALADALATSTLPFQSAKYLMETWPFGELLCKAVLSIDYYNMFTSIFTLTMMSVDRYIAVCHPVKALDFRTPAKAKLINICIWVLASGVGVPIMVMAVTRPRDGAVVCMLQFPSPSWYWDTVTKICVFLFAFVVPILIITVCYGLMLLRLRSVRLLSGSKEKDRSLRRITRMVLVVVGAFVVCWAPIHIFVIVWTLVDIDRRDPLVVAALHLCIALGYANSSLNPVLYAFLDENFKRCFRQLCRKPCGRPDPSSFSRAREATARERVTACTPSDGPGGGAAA

[10] = target: Mu-type opioid receptor (Homo sapiens, UniProt P35372); experiment: HTS Image-Based Screen for Agonists of the MOR Receptor. [Related pubchem assays (depositor defined):AID1777, AID1785, AID1786, AID2133]; type: functional;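 note: imaging of beta-arrestin GFP recruitment into spots after receptor activation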
Chain of Mu-type opioid receptor (P35372 whole entry): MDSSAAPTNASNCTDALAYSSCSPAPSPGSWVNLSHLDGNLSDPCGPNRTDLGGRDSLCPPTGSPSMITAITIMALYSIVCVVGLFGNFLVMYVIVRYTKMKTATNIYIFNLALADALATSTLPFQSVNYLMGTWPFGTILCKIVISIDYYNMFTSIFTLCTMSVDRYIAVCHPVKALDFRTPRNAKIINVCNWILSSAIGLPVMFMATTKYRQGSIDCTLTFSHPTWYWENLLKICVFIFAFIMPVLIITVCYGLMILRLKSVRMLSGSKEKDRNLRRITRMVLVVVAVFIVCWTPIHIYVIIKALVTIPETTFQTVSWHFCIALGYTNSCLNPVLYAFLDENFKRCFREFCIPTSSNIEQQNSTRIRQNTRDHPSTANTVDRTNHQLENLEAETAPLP

[11] = target: T5, Delta-type opioid receptor; experiment: HTS Image-Based Screen for Agonists of the DOR Receptor. [Related pubchem assays (depositor defined):AID1777, AID1786, AID2133]; type: functional
[12] = target: T6, Kappa-type opioid receptor (Homo sapiens, UniProt P41145); type: functional
T6 sequence (P41145 whole entry): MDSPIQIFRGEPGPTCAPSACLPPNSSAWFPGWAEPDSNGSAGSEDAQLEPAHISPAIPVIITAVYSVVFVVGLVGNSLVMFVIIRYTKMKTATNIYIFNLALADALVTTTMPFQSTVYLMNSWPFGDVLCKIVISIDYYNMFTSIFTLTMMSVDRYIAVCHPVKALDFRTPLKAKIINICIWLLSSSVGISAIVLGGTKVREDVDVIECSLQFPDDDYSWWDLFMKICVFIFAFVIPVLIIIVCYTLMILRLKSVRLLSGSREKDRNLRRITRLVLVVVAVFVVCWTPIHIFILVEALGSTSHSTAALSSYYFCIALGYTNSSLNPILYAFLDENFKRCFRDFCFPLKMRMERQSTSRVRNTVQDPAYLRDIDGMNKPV

[13] = target: Beta-galactosidase (Escherichia coli, UniProt Q8VNN2); type: functional
Chain of Beta-galactosidase (Q8VNN2 whole entry): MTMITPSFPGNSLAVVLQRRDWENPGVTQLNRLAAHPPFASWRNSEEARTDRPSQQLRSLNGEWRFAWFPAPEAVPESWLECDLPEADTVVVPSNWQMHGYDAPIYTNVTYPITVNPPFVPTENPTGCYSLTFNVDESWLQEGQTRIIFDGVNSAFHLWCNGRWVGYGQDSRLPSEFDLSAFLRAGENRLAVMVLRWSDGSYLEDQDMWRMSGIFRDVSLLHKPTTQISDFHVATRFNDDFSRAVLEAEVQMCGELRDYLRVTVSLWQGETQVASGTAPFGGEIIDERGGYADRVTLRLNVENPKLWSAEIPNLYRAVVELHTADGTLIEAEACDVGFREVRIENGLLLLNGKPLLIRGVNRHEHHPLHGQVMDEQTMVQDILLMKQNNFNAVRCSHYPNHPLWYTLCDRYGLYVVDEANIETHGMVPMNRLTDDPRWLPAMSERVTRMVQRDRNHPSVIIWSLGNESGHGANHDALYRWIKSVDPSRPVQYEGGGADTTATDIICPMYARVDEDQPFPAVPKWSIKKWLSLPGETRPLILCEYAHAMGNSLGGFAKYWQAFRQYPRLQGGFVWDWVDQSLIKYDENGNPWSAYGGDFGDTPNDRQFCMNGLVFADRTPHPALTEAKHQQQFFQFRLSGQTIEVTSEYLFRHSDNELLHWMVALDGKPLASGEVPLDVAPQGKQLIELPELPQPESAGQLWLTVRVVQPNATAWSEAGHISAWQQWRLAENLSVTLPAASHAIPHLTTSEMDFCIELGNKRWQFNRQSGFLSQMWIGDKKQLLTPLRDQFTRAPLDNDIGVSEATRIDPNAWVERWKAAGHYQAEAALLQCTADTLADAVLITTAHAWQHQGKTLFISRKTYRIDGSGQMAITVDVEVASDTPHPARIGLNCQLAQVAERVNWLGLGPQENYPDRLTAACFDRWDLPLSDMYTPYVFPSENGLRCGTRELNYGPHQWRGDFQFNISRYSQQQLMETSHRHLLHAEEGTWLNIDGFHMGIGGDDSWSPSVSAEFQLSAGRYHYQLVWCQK

[14] = target: T6, Kappa-type opioid receptor; type: functional; remark: listed apart in the source
[15] = target: T7, Latent membrane protein 1 (Human herpesvirus 4 (strain B95-8), UniProt P03230); experiment: LMP1 TES1 pathway selectivity over dsRED control – imaging, HEK293T, dual-color eGFP/dsRED, cherry-picks, selectivity assay for LMP1 NF-kB inhibitor project, dose response (AID 588398); type: functional, cell-based
T7 sequence (P03230 whole entry): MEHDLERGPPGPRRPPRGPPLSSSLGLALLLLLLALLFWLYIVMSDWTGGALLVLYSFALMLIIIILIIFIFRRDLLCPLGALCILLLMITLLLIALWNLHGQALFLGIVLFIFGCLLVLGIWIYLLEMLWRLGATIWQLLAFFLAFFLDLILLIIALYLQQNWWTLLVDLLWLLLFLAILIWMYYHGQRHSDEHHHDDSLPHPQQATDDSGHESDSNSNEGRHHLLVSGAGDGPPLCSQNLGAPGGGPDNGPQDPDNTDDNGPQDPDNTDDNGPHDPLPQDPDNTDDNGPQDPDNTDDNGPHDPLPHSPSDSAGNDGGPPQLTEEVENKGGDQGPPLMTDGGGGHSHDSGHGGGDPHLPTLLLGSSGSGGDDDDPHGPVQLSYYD

[16] = test system: BJ; experiment: BJ-TERT fibroblast viability loss – cell-based, RAS-independent, luminescence, dose response (AID 1933); type: functional; conditions: Homo sapiens
[17] = test system: BJ; experiment: cells; type: functional, cell-based; conditions: Homo sapiens
[18] = test system: BJ; experiment: BJ-TERT-LT-ST fibroblast viability loss – cell-based, RAS-independent, luminescence, dose response (AID 1935); type: functional; conditions: Homo sapiens;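 note: BJ fibroblasts immortalized with TERT plus LT and ST oncogenes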
[19] = DRD fibroblast viability loss – cell-based, non-viral oncogenic, luminescence, dose response (AID 1934); type: functional; conditions: Homo sapiens
[20] = test system: Jurkat; experiment: blockers of NF-kB activation in T cells – Jurkat, luciferase reporter, luminescence, B- and T-cell, dose response (AID 489004); type: functional, cell-based; conditions: Homo sapiens;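 note: NF-kB luciferase reporter Jurkat cells stimulated with PMA plus ionomycin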
[21] = HEK-293T viability loss, compound-treated – cell-based, uHTS hits, cytotoxicity control for B/T-cell NF-kB inhibitor project, dose response (AID 489019); type: functional;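 note: IC50 reflects cytotoxicity as loss of cell viability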
[22] = target: T8, Microphthalmia-associated transcription factor (Homo sapiens, UniProt O75030); experiment: reducers of TRPM1 reporter luminescence, concentration series – cell-based, SK-MEL-5, cherry-picked, set 3, MITF inhibitor project, dose response (AID 493073); type: functional;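 note: SK-MEL-5 melanoma cells with luciferase driven by the MITF target TRPM1 promoter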
T8 sequence (O75030 whole entry): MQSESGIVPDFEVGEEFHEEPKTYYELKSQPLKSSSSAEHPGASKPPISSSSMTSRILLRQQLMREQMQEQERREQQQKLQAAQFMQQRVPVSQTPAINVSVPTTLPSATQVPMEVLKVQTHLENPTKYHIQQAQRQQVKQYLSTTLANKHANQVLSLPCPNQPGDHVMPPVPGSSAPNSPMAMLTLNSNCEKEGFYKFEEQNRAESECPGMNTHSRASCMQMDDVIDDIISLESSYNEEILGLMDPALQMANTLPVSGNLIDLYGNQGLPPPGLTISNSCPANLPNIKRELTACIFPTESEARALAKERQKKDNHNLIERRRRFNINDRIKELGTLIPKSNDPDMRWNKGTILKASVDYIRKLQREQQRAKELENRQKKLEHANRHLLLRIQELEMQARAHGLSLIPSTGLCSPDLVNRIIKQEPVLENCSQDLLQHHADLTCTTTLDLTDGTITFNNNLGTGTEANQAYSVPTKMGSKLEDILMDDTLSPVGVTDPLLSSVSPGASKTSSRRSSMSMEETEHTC

[23] = test system: A-375; experiment: proliferation inhibition in MITF-low A375 cells – cell-based, cherry-pick samples, set 2, counter-screen for MITF modulator project, dose response (AID 540335); type: functional; conditions: Homo sapiens
[24] = target: Melanocortin receptor 4 (Homo sapiens, UniProt P32245); experiment: inhibitors of MC4R cAMP signaling – cell-based, TR-FRET, biased antagonists, dose response (AID 602298); type: functional;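 note: antagonist potency against agonist-stimulated cAMP production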
Chain of Melanocortin receptor 4 (P32245 whole entry): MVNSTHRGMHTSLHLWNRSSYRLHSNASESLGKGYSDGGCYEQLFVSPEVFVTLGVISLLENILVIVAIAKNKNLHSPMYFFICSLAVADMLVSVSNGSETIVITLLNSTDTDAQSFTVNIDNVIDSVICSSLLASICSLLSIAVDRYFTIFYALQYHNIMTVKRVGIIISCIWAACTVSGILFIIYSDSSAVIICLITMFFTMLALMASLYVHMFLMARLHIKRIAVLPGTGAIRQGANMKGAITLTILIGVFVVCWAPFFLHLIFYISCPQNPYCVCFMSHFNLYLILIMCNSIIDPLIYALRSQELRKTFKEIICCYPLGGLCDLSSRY

[25] = reduction of Shn3 3'UTR-driven luciferase in osteoblasts – cell-based, Clone20 osteoblasts, firefly luciferase, cherry-picked, dose response (AID 624132); type: functional;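 note: firefly luciferase luminescence from reporter carrying the Shn3 3'UTR in osteoblasts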
[26] = loss of viability in HepG2 cells – cell-based, CellTiter-Glo, cherry-picked, cytotoxicity control for Shn3 inhibitor project, dose response (AID 624134); type: functional
[27] = non-specific 3'UTR reporter inhibition in Clone20-Shn3RL – cell-based, Renilla luciferase, cherry-picked, counter-screen for Shn3 inhibitor project, dose response (AID 624133); type: functional
[28] = cAMP pathway inhibition in counterscreen cell line – TR-FRET cAMP detection, counter-screen for MC4R biased antagonist project, dose response (AID 602305); type: functional, cell-based;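 note: U2OS cells stimulated with forskolin near its EC80 as the cAMP inducer; potency is for inhibition of forskolin-stimulated cAMP signaling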
[29] = activation of miR-122 Renilla sensor silencing – cell-based, Huh7 psiCHECK-miR122, Renilla luciferase, cherry-picked, dose response (AID 651956); type: functional;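 note: huh7 hepatoma cells stably carrying a psiCHECK-2 miR-122 sensor plasmid; renilla luciferase signal reporting endogenous miR-122 activity after 48 h compound exposure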
[30] = reduced cellular PGC1a acetyl-lysine signal – cell-based, cherry-picked samples, dose response (AID 720514); type: functional;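 note: potency may reflect raised or lowered acetylation signal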
[31] = general mammalian cell viability loss – inhibitor set, cherry-pick, set 2, cytotoxicity control for miR-122 modulator project, dose response (AID 720697); type: functional, cell-based
[32] = general mammalian cell viability loss – activator set, cherry-pick, cytotoxicity control for miR-122 modulator project, dose response (AID 720690); type: functional, cell-based;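 note: HEK293T human cells scored for general mammalian cytotoxicity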

Chain of Intestinal-type alkaline phosphatase (Mus musculus, UniProt P24822) (P24822 whole entry): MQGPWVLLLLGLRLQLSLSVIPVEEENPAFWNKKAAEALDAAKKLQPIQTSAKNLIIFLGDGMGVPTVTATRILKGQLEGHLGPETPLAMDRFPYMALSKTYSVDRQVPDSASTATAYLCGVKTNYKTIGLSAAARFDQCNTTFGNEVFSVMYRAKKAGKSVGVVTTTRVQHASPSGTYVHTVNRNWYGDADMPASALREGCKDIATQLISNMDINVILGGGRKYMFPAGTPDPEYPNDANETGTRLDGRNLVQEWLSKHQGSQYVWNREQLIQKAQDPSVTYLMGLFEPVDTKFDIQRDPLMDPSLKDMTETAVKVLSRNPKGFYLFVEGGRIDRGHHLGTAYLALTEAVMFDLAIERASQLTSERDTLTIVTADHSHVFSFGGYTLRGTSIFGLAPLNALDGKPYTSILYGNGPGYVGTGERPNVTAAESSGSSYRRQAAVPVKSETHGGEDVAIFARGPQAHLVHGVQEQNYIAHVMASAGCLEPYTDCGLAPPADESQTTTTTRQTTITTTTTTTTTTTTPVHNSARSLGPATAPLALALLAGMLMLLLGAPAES

For `Cc1cccc(OCC(=O)NNC(=O)c2ccc3[nH]cnc3c2)c1`, the IC50 [1] was > 100 µM (inactive), the EC50 [2] was 9.75 µM (active) and the EC50 [3] was 13.5 µM (active). For the same compound, the EC50 [4] was 17.7 µM (active) and the AC50 [5] was 44 µM (active).

In the case of `CC(C)c1ccc(NC(=O)CSc2nc3ccsc3c(=O)n2Cc2ccc(C(=O)O)cc2)cc1`, the IC50 [6] was 0.561 µM (active), the IC50 [7] was 5.68 µM (active) and the IC50 [8] was 11.7 µM (inactive).

With `O=c1[nH]c(Nc2nc3ccccc3o2)nc2c1CCCC2` the IC50 [9] was > 32 µM (inactive), the EC50 [10] was > 32 µM (inactive) and the EC50 [11] was > 32 µM (inactive). The IC50 [12] was 5.27 µM (active), the EC50 [13] was > 31.5 µM (inactive) and the pIC50 [14] was less than 4.49. For the same compound, the AC50 [15] was 16.8 µM (active).

In the case of `C#CC(=O)N(c1ccc(OC)c(OC)c1)C(C(=O)NC1CCCC1)c1cccs1` (configuration not stated), the EC50 [16] was 0.171 µM (inconclusive), the EC50 [17] was 5.23 µM (inconclusive) and the EC50 [18] was 7.04 µM (active). The EC50 [19] was 3.54 µM (active), the IC50 [20] was 0.26 µM (active) and the IC50 [21] was 73 µM (inactive). The AC50 [22] was 3.31 µM (active), the AC50 [23] was 5.92 µM (active) and the IC50 [24] was 2.51 µM (active). For the same compound, the AC50 [25] was 3.32 µM (active), the AC50 [26] was 2.4 µM (active) and the AC50 [27] was 14.3 µM (active). For the same compound, the IC50 [28] was > 64.6 µM (inactive), the AC50 [29] was 0.651 µM (active) and the AC50 [30] was 3.18 µM (active). The AC50 [31] was < 0.195 µM (active) and the AC50 [32] was < 0.195 µM (active).
